Source: PubChem BioAssay AID1033 (Sanford-Burnham Center for Chemical Genomics, 2008)
Active and inactive are the calls of the source. How the calls were made is not given here.

Molecular target: Chaperone protein DnaK (Escherichia coli (strain K12)) (UniProt P0A6Y8)
Assay: E. coli DnaK SBD ligand binding – biophysical, NMR, chaperone (AID 1033)
Settings: Purified DnaK SBD

Sequence of Chaperone protein DnaK (Escherichia coli (strain K12)) (P0A6Y8 whole entry, looked up): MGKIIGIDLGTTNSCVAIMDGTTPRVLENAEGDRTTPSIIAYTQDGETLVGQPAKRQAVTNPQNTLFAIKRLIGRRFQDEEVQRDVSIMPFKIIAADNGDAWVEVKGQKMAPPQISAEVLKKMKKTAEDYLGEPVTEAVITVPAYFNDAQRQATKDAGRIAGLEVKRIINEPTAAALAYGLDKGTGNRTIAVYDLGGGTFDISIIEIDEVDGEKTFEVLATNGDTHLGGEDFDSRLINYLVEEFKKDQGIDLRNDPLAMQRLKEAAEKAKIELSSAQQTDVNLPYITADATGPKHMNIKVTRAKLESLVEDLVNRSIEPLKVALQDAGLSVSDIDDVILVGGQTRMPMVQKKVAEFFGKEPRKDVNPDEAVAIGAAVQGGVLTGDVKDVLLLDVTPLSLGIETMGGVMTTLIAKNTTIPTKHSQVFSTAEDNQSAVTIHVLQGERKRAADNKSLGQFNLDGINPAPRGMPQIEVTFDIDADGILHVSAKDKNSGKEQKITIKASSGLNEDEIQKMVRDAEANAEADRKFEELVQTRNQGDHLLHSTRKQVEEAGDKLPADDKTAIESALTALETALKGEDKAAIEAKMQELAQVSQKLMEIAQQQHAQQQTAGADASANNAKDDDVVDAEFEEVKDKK

Compound | Kd
CC(=O)O[C@@H]1CC2C(C)(C)[C@H](O)C=C[C@]2(C)C2CC[C@]3(C)C(=CC(=O)O[C@H]3c3ccoc3)[C@@]21C (stereo partly drawn) | > 4 mM (inactive)
CC1=CCc2c(cc3oc(C)cc(=O)c3c2O)OC1 | > 4 mM (inactive)
CC1(C)C(=O)C=C[C@@]2(C)C1=C(O)C(=O)[C@]1(C)C2CC[C@@]2(C)[C@H](c3ccoc3)C[C@H]3O[C@]321 (stereo partly drawn) | > 4 mM (inactive)
COn1c(=O)c(-c2ccco2)[n+]([O-])c2ccccc21 | > 4 mM (inactive)
CC(=O)OC1CCC2(C)C(=CC=C3C2CCC2(C)C3CCC2C(C)/C=C/C(C)C(C)C)C1(C)C (stereo not drawn) | > 4 mM (inactive)
Cc1cc(C)n2nc(C(=O)Nc3cccnc3)nc2n1 | > 4 mM (inactive)
NC(=O)CCn1c(=O)oc2ccccc21 | > 4 mM (inactive)
O=C(Nc1nc2c(s1)CCCC2)c1cccnc1 | > 4 mM (inactive)
c1cncc(Nc2nc(-c3ccncc3)cs2)c1 | > 4 mM (inactive)
CCC(C)C(=O)O[C@@H]1C[C@@]2(C)[C@H](c3ccoc3)OC(=O)CC23OC2(C)OC34[C@H](OC(=O)C(C)C)[C@@]3(O)[C@@H](OC(=O)C5(C)OC5C)[C@@]5(C)C[C@]3(O)[C@@](C)([C@H]5CC(=O)OC)C14O2 (stereo partly drawn) | > 4 mM (inactive)
COc1ccc(NC(=O)/C=N/O)cc1 | > 4 mM (inactive)
NC(=S)NC1CCS(=O)(=O)C1 (stereo not drawn) | > 4 mM (inactive)
COc1cc2nc(N3CCNCC3)nc(N)c2cc1OC | > 4 mM (inactive)
CC(=O)O[C@@H]1CC2C(C)(C)[C@H](O)CC[C@]2(C)C2CC[C@@]3(C)[C@H](c4ccoc4)OC(=O)C4OC43[C@@]21C (stereo partly drawn) | > 4 mM (inactive)
CCN1CC2(C)CC[C@H](OC)[C@]34C2[C@H](O)C2(OCO[C@@]25C[C@H](OC)[C@H]2C[C@]3(O)C5[C@H]2O)C14 | > 4 mM (inactive)
CCOC(=O)c1c(C)nc2cc(C)ccn12 | > 4 mM (inactive)
CC(C)(C#N)O[C@@H]1O[C@H](CO)[C@@H](O)[C@H](O)[C@H]1O | > 4 mM (inactive)
CC(=O)OC[C@@]1(O)C[C@@]23CCC4c5ccoc5CC[C@]4(C)C2CC[C@@H]1C3 (stereo partly drawn) | > 4 mM (inactive)
O=C1C2CC=C(Cl)CC2C(=O)N1c1ccccc1O (stereo not drawn) | > 4 mM (inactive)
O=C(O)Cn1c(=O)sc2ccccc21 | > 4 mM (inactive)
CC(NC(=O)C1CCCCC1)C(=O)NC1=NCCS1 (stereo not drawn) | > 4 mM (inactive)
Clc1ccc(-c2noc(CN3CCCC3)n2)cc1 | > 4 mM (inactive)
CC1(C)Cn2c(nnc2-c2ccccc2)S1 | > 4 mM (inactive)

Compound | Kd
COc1ccc2c(c1)OCc1c-2oc2cc(OC)ccc12 | > 4 mM (inactive)
CC(=O)Nc1ccc(N2CCOCC2)cc1 | > 4 mM (inactive)
Cn1cnnc1Sc1ncnc(N)c1[N+](=O)[O-] | > 4 mM (inactive)
CC(=O)Oc1c(-c2ccccc2)oc2c(CC=C(C)C)c3c(c(OC(C)=O)c2c1=O)C=CC(C)(C)O3 | > 4 mM (inactive)
O=C(O)Cn1cc(C(=O)c2cccs2)c2ccccc21 | > 4 mM (inactive)
O=C(O)CCSc1nc2ccccc2s1 | > 4 mM (inactive)
NC(=O)CCS(=O)(=O)CCN1CCOCC1 | > 4 mM (inactive)
COC1=CC(=O)C(O)=C/C1=C\C=C\c1ccccc1 | > 4 mM (inactive)
CC1=C(/C=C/C(C)=C/C=C/C(C)=C/CO)C(C)(C)CCC1 | > 4 mM (inactive)
O=C(COc1ccccc1O)NCCO | > 4 mM (inactive)
CC(=O)Oc1cccc2ccc(=O)[nH]c12 | > 4 mM (inactive)
Cc1nnc(-n2cnc3ccccc32)c2ccccc12 | > 4 mM (inactive)
CCCn1c(C)cc(=O)[nH]c1=O | > 4 mM (inactive)
COc1cc(S(=O)(=O)Nc2cccnc2)ccc1F | > 4 mM (inactive)
Cc1cc[n+](-c2nc([O-])sc2C=O)cc1 | > 4 mM (inactive)
C=CC(C1=CC(=O)C(OC)=CC1=O)c1ccccc1 (stereo not drawn) | > 4 mM (inactive)
CN(C)S(=O)(=O)Nc1ccc(Br)cc1F | > 4 mM (inactive)
COc1ccc([C@@H](C)C(=O)c2ccc(O)cc2O)cc1 | > 4 mM (inactive)
COc1cccc(/C=N/N=C2/NC(=O)CS2)c1 | > 4 mM (inactive)
NC(=O)c1ccsc1N | > 4 mM (inactive)
O=C(O)C1(S(=O)(=O)c2ccccc2)CC1 | > 4 mM (inactive)
CSc1ccccc1NC(=O)c1cnccn1 | > 4 mM (inactive)
Cc1cc(=O)cc(C)n1NC(N)=S | > 4 mM (inactive)

Compound | Kd
O=C1c2ccccc2C(=O)N1Cc1ccco1 | > 4 mM (inactive)
CC1=NN(c2ccc(C)cc2)C(=O)C1 | > 4 mM (inactive)
COC(=O)c1c(OC)cc2c(c1C)Oc1c(Cl)c(O)c(Cl)c(C)c1C(=O)O2 | > 4 mM (inactive)
NC(=O)c1sc2ccccc2c1Cl | > 4 mM (inactive)
Cc1cc(C(=O)NC(C)c2ccncc2)cs1 (stereo not drawn) | > 4 mM (inactive)
Cn1ncc(SCc2ccco2)c(Cl)c1=O | > 4 mM (inactive)
Nc1scc[n+]1CC(=O)[O-] | > 4 mM (inactive)
Nc1cc(F)ccc1-n1ccnc1 | > 4 mM (inactive)
O=C(NC(O)C(=O)c1ccccc1)c1ccco1 (stereo not drawn) | > 4 mM (inactive)
O=c1cc(O)n(-c2ccc(F)cc2)c(=S)[nH]1 | > 4 mM (inactive)
O=C1c2ccccc2C(=O)N1/N=C/c1ccc[nH]1 | > 4 mM (inactive)
O=C(c1cccc(C(F)(F)F)c1)N1CCCC1 | > 4 mM (inactive)
NCc1ccccc1N1CCCCC1 | > 4 mM (inactive)
Cn1nc(C(C)(C)C)cc1N | > 4 mM (inactive)
CC(C)=CC(=O)Nc1ccccc1Br | > 4 mM (inactive)
Cc1cc(C(F)(F)F)n2nc(C(=O)O)c(Cl)c2n1 | > 4 mM (inactive)
COC(=O)C[C@H]1C(C)(C)C(OC(C)=O)[C@]2(O)C=C3C(CC[C@]4(C)C3CC(=O)O[C@H]4c3ccoc3)C1(C)C2=O (stereo partly drawn) | > 4 mM (inactive)
Cn1ncc2c(=O)n(CC(=O)c3ccccc3)cnc21 | > 4 mM (inactive)
O=C(CC1SC(=O)NC1=O)Nc1ccccc1 (stereo not drawn) | > 4 mM (inactive)
O=C(Nn1cnnc1)c1ccccc1Cl | > 4 mM (inactive)
Cc1cc(C(=O)Nc2ccc3c(c2)OCO3)cs1 | > 4 mM (inactive)
Cc1sc2nc(SCC(=O)N(C)C)[nH]c(=O)c2c1C | > 4 mM (inactive)
N#Cc1c(N)c(C(=O)c2ccccc2)n2c1CCC2 | > 4 mM (inactive)

Compound | Kd
COc1ccc(C(=O)NCC(=O)O)cc1 | > 4 mM (inactive)
COCc1c(CN)cnc(C)c1N | > 4 mM (inactive)
NCc1ccc(CN2CCOCC2)cc1 | > 4 mM (inactive)
Fc1cc2nccnc2cc1N1CCSCC1 | > 4 mM (inactive)
CN1C(=O)C2C=CC1C1C(=O)N(c3ccccc3)C(=O)C21 (stereo not drawn) | > 4 mM (inactive)
c1ccc(-c2nnc3sc(-c4ccncc4)nn23)cc1 | > 4 mM (inactive)
NCc1nnnn1-c1ccccc1 | > 4 mM (inactive)
CCOC(=O)c1c(SC)nc(=O)[nH]c1C | > 4 mM (inactive)
Cc1cc(CN2C(=O)c3ccccc3C2=O)on1 | > 4 mM (inactive)
Cc1nc2ccccc2c(=O)n1NC(=O)Nc1ccccc1 | > 4 mM (inactive)
O=C1NC(=S)N/C1=C\c1cccnc1 | > 4 mM (inactive)
Nc1ccc2c(c1)S(=O)(=O)C=C2 | > 4 mM (inactive)
O=C1CSC(=Nc2ccccc2[N+](=O)[O-])N1 | > 4 mM (inactive)
COc1ccc(-c2coc3c(OC)c(OC)cc(OC)c3c2=O)cc1 | > 4 mM (inactive)
Cc1sc(N)c(C(N)=O)c1C | > 4 mM (inactive)
O=c1[nH]oc2ccccc12 | > 4 mM (inactive)
COC1=CC(C)[C@@H]2C[C@H]3OC(=O)C[C@H]4C(C)=C(OC)C(=O)C([C@@]34C)[C@@]2(C)C1=O (stereo partly drawn) | > 4 mM (inactive)
O=C(O)/C=C/c1ccc(O)c(O)c1 | > 4 mM (inactive)
O=C(c1ccc2c(c1)OCO2)N1CCC2(CC1)OCCO2 | > 4 mM (inactive)
CC1(C)N([O-])c2cc([N+](=O)[O-])ccc2[N+]1=O | > 4 mM (inactive)
S=c1[nH]nc(-c2cccnc2)n1C1CCCCC1 | > 4 mM (inactive)
O=C(NCc1cccs1)c1ccc2c(c1)OCCO2 | > 4 mM (inactive)
O=C1NNC(=O)C2C3c4ccccc4C(c4ccccc43)C12 (stereo not drawn) | > 4 mM (inactive)

Compound | Kd
Cc1ccc(CCNc2ccccc2)c[n+]1[O-] | > 4 mM (inactive)
COc1ccc(CN2CCC(O)CC2)c(O)c1 | > 4 mM (inactive)
O=CN1CCN(C2CC(=O)N(c3ccccc3)C2=O)CC1 (stereo not drawn) | > 4 mM (inactive)
CC(CCC(=O)O)[C@H]1CCC2C3CC[C@@H]4C[C@H](O)CC[C@]4(C)C3C[C@H](O)[C@@]21C (stereo partly drawn) | > 4 mM (inactive)
Clc1ccc2c(N3CCNCC3)ccnc2c1 | > 4 mM (inactive)
COC(=O)N(c1ccccc1)P1(=S)OCCO1 | > 4 mM (inactive)
CN1CC(=O)Nc2ccc([N+](=O)[O-])cc2C1=O | > 4 mM (inactive)
COC(=O)c1noc(C)c1C(C)=O | > 4 mM (inactive)
CCC(CO)NC(=O)c1snnc1C (stereo not drawn) | > 4 mM (inactive)
CCCNC(=O)c1cnc2n(c1=O)CCS2 | > 4 mM (inactive)
CSc1nnc(-c2ccccc2NC(C)=O)o1 | > 4 mM (inactive)
CC(C)Oc1ccc(NC(N)=O)cc1 | > 4 mM (inactive)
Cc1cc(C)n2nc(N)nc2n1 | > 4 mM (inactive)
Cc1ccc(NC(=O)/C=C2\SC(=O)NC2=O)cc1 | > 4 mM (inactive)
COC(=O)C1[C@H]2C[C@H]3c4[nH]c5ccccc5c4CCN3C[C@@H]2CC[C@@H]1O (stereo partly drawn) | > 4 mM (inactive)
O=c1c(-c2ccc(O)cc2)coc2cc(O)ccc12 | > 4 mM (inactive)
Nc1ncnc2c1ncn2CCN1CCCCC1 | > 4 mM (inactive)
CS(=O)(=O)c1cccc(C(=O)Nc2nccs2)c1 | > 4 mM (inactive)
O=C(Nc1ccccc1N1CCCC1)c1cccnc1 | > 4 mM (inactive)
O=C(Oc1ccc2c(c1)CCC2)N1CCOCC1 | > 4 mM (inactive)
COc1cc2c(cc1OC)[C@@H]1C(=O)c3ccc4c(c3O[C@@H]1CO2)CC(C(C)C)O4 (stereo partly drawn) | > 4 mM (inactive)
